Several values for one entry are separate records, joined by “and”; a condition that tells them apart may be missing. Equal values may be shown once. Read-outs that look alike come from different tables or passages of the source.
Assays:
[1] = system: extracellular T. gondii tachyzoites expressing TgATP4^WT; assay: [Na+]cyt measurement (SBFI), Na+ dysregulation; type: cell-based, Toxoplasma gondii; parameters: Final [Na+]cyt reached: unit not given here
Description: The ratio of the fluorescence intensity recorded at 340 nm and 380 nm (with an emission wavelength of 515 nm) was converted to [Na^+]cyt using a calibration procedure that entailed suspending parasites in solutions of varying [Na^+] containing ionophores. Fluorescence measurements and calibrations were performed at 37 °C, either with individual 1 mL suspensions using a PerkinElmer LS 50B fluorescence spectrometer (for resting [Na^+]cyt measurements for which the data are shown in Supplementary Fig. 7) or in 96-well plates using a Tecan Infinite M1000 PRO plate reader with i-control (version 1.12) software (all other [Na^+]cyt measurements).

[2] = biological target: T1, PfATP4^WT (membranes from Dd2-Polδ parasites) (Plasmodium falciparum, UniProt A0A143ZZK9); assay: Membrane ATPase assay, ATP4-associated (Na+-dependent) ATPase activity; type: biochemical; settings: for PfATP4-associated ATPase activity (% of control): single experiments
T1 sequence (A0A143ZZK9 1-1264): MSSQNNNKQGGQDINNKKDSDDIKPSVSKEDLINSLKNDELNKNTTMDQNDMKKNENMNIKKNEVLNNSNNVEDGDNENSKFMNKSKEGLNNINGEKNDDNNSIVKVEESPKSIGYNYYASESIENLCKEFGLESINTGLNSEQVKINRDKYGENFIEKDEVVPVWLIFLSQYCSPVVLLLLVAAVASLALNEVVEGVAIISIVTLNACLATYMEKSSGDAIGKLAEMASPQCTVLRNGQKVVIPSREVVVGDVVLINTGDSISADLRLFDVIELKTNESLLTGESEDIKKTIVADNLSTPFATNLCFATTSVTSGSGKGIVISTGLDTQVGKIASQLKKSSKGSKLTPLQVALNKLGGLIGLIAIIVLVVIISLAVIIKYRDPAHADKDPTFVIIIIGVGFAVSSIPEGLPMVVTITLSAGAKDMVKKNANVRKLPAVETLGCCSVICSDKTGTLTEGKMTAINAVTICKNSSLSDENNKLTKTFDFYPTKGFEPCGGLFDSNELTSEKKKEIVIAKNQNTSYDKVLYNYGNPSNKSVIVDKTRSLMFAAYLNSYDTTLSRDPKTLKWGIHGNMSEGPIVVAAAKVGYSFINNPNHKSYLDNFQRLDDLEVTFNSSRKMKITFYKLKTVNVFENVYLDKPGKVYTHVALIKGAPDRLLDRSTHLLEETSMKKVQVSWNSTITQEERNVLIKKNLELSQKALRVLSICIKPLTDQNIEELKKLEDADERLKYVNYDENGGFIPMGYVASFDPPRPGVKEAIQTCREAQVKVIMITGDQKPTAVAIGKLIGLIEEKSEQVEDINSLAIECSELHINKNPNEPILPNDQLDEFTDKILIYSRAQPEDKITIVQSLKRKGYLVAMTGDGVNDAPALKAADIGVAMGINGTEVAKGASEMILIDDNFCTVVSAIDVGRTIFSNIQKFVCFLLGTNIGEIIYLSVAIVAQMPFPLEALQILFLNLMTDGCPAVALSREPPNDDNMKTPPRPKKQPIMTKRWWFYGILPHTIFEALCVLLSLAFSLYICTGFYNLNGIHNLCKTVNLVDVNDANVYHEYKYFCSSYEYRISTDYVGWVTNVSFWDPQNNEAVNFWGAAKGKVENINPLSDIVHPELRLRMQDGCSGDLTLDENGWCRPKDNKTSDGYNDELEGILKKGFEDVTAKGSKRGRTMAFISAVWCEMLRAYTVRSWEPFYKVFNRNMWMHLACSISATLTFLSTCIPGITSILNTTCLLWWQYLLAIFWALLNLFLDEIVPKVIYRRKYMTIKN
Description: Membranes from isolated P. falciparum or extracellular T. gondii parasites were prepared by lysing parasites in ice-cold deionized water containing a 1:500 dilution of Protease Inhibitor Cocktail Set III (Merck Millipore), then washing the membrane preparation three times in ice-cold deionized water (with protease inhibitors present for the first two washes)[15]. Protein concentrations in the membrane preparations were measured using a Bradford assay. The PiColorLock Gold Phosphate Detection System (Innova Biosciences) was used to measure the production of Pi from hydrolysis of ATP[15]. Membrane preparations were diluted in either a high Na^+ solution (yielding final conditions in the reactions of 150 mM NaCl, 20 mM KCl, 2 mM MgCl2, 50 mM Tris, pH 7.2) or a Na^+-free solution (yielding final conditions of 150 mM choline chloride, 20 mM KCl, 2 mM MgCl2, 50 mM Tris, pH 7.2) to achieve a total protein concentration of 50 μg/mL. […] The reactions were performed at 37 °C, and were initiated by the addition of 1 mM ATP (Na2ATP۰3H2O; MP Biomedicals) and terminated 10 min later by adding 100 μL of reaction mixture (in duplicate) to 25 μL “Gold mix” in a 96-well plate. “Stabiliser” was added 3 min later, and the plates incubated at room temperature in the dark for 60 min before measuring absorbance at 635 nm. Background values (averaged from wells containing all components, but to which ATP was not added until after the membrane was exposed to Gold mix) were subtracted from the data. For each treatment, the ATPase activity associated with the (Na^+-dependent) PfATP4 and TgATP4 proteins was calculated by subtracting data obtained in the low Na^+ condition (containing only the 2 mM Na^+ introduced on addition of 1 mM Na2ATP) from that obtained in the high Na^+ condition.

Compound: C[C@H]1Cc2c([nH]c3cc(Cl)c(F)cc23)[C@@]2(N1)C(=O)Nc1ccc(Cl)cc12 [Cipargamin]
- IC50 ([1]; Toxoplasma gondii, 1.5 h, pH 7.1, WT T. gondii (TgATP4WT), ~90 min exposure, 37 °C, pH 7.1, mean ± SEM, read-out: IC50 for Na+ dysregulation): 110 ± 3 nM
- IC50 ([1]; Toxoplasma gondii, WT T. gondii, MEAN, source data of Table 1 (nM there), read-out: IC50 for Na+ dysregulation, MEAN): 110 nM
- IC50 ([1]; Toxoplasma gondii, WT T. gondii, single experiments, source data of Table 1 (nM there), read-out: IC50 for Na+ dysregulation): 103 nM
- Final [Na+]cyt reached ([1]; WT T. gondii, [cipargamin] 0.5 nM, MEAN): 15.8
- Final [Na+]cyt reached ([1]; WT T. gondii, [cipargamin] 0.5 nM, single experiments): 14.2 and 16.3 and 16.8
- Final [Na+]cyt reached ([1]; WT T. gondii, [cipargamin] 1.0 nM, MEAN): 16.2
- Final [Na+]cyt reached ([1]; WT T. gondii, [cipargamin] 1.0 nM, single experiments): 15.5 and 17.0 and 16.2
- Final [Na+]cyt reached ([1]; WT T. gondii, [cipargamin] 2.0 nM, MEAN): 14.1
- Final [Na+]cyt reached ([1]; WT T. gondii, [cipargamin] 3.9 nM, MEAN): 20.7
- Final [Na+]cyt reached ([1]; WT T. gondii, [cipargamin] 3.9 nM, single experiments): 19.6 and 20.6 and 21.8
- Final [Na+]cyt reached ([1]; WT T. gondii, [cipargamin] 7.8 nM, MEAN): 23.3
- Final [Na+]cyt reached ([1]; WT T. gondii, [cipargamin] 7.8 nM, single experiments): 25.2 and 22.3 and 22.5
- Final [Na+]cyt reached ([1]; WT T. gondii, [cipargamin] 15.6 nM, MEAN): 26.7
- Final [Na+]cyt reached ([1]; WT T. gondii, [cipargamin] 15.6 nM, single experiments): 29.0 and 26.8 and 24.3
- Final [Na+]cyt reached ([1]; WT T. gondii, [cipargamin] 31.3 nM, MEAN): 34.0
- Final [Na+]cyt reached ([1]; WT T. gondii, [cipargamin] 31.3 nM, single experiments): 35.7 and 36.9 and 29.4
- Final [Na+]cyt reached ([1]; WT T. gondii, [cipargamin] 62.5 nM, MEAN): 44.2
- Final [Na+]cyt reached ([1]; WT T. gondii, [cipargamin] 62.5 nM, single experiments): 43.2 and 51.7 and 37.6
- Final [Na+]cyt reached ([1]; WT T. gondii, [cipargamin] 250 nM, MEAN): 75.6
- Final [Na+]cyt reached ([1]; WT T. gondii, [cipargamin] 250 nM, single experiments): 72.9 and 86.9 and 66.9
- Final [Na+]cyt reached ([1]; WT T. gondii, [cipargamin] 500 nM, MEAN): 86.6
- Final [Na+]cyt reached ([1]; WT T. gondii, [cipargamin] 500 nM, single experiments): 82.0 and 102.0 and 75.9
- Final [Na+]cyt reached ([1]; WT T. gondii, [cipargamin] 1000 nM, MEAN): 91.2
- Final [Na+]cyt reached ([1]; WT T. gondii, [cipargamin] 1000 nM, single experiments): 85.2 and 107.2 and 81.2
- IC50 ([1]; WT T. gondii, single experiments, source data of Table 1 (nM there), read-out: IC50 for Na+ dysregulation): 113 nM
- IC50 for inhibition of ATP4-associated ATPase activity, MEAN ([2]; Dd2-Polδ membranes, MEAN, source data of Table 1 (nM there)): 2.51
- remaining activity at 3.76 pM ([2]; Dd2-Polδ, [Cipargamin] 0.00376 nM, MEAN, read-out: PfATP4-associated ATPase activity (% of control)): 75.4%
- remaining activity at 11 pM ([2]; Dd2-Polδ, [Cipargamin] 0.011 nM, MEAN, read-out: PfATP4-associated ATPase activity (% of control)): 75%
- PfATP4-associated ATPase activity (% of control) ([2]; Dd2-Polδ, [Cipargamin] 0.011 nM, 11 pM): 92.1 % of control and 50.6 % of control and 82.7 % of control and 74.5 % of control
- remaining activity at 34 pM ([2]; Dd2-Polδ, [Cipargamin] 0.034 nM, MEAN, read-out: PfATP4-associated ATPase activity (% of control)): 76%
- remaining activity at 0.000102 µM ([2]; Dd2-Polδ, [Cipargamin] 0.102 nM, MEAN, read-out: PfATP4-associated ATPase activity (% of control)): 66.1%
- remaining activity at 0.000305 µM ([2]; Dd2-Polδ, [Cipargamin] 0.305 nM, MEAN, read-out: PfATP4-associated ATPase activity (% of control)): 60.1%
- PfATP4-associated ATPase activity (% of control) ([2]; Dd2-Polδ, [Cipargamin] 0.305 nM, 0.000305 µM): 59.8 % of control and 42.8 % of control and 70.9 % of control and 66.9 % of control
- remaining activity at 0.000914 µM ([2]; Dd2-Polδ, [Cipargamin] 0.914 nM, MEAN, read-out: PfATP4-associated ATPase activity (% of control)): 32.6%
- remaining activity at 0.002743 µM ([2]; Dd2-Polδ, [Cipargamin] 2.743 nM, MEAN, read-out: PfATP4-associated ATPase activity (% of control)): 25.1%
- remaining activity at 0.00823 µM ([2]; Dd2-Polδ, [Cipargamin] 8.230 nM, MEAN, read-out: PfATP4-associated ATPase activity (% of control)): -9.5%
- remaining activity at 0.024691 µM ([2]; Dd2-Polδ, [Cipargamin] 24.691 nM, MEAN, read-out: PfATP4-associated ATPase activity (% of control)): -14.7%
- remaining activity at 0.074074 µM ([2]; Dd2-Polδ, [Cipargamin] 74.074 nM, MEAN, read-out: PfATP4-associated ATPase activity (% of control)): -19.7%
- remaining activity at 0.222222 µM ([2]; Dd2-Polδ, [Cipargamin] 222.222 nM, MEAN, read-out: PfATP4-associated ATPase activity (% of control)): -16.9%
- remaining activity at 0.666667 µM ([2]; Dd2-Polδ, [Cipargamin] 666.667 nM, MEAN, read-out: PfATP4-associated ATPase activity (% of control)): -29.5%
- remaining activity at 1.25 pM ([2]; Dd2-Polδ, [Cipargamin] […], MEAN, read-out: PfATP4-associated ATPase activity (% of control)): 85.7%
- IC50 for ATP4-associated ATPase activity ([2]; membranes from Dd2-Polδ, mean ± SEM): 2.5 ± 0.8 (4) nM
